# Reference: patent US20240116875A1, “RATIONAL DESIGN, OPTIMIZATION, AND BIOLOGICAL EVALUATION OF NOVEL MEK4 INHIBITORS AGAINST PANCREATIC ADENOCARCINOMA” (NORTHWESTERN UNIVERSITY, priority 2022, published 2024)
# Values joined by “and” are separate entries in the source; they are usually repeats but may differ in a detail not shown here. Equal values may be shown once. Read-outs that look alike come from different tables or passages of the source.
# What was measured:
# [1] = system: JNK1/2/3; experiment: scanEDGE DiscoverX kinome-wide scan, JNK1/2/3; assay type: binding; settings: 10 μM
# Description: (§1) To compare our compounds to the rest of the MEK inhibitors discovered thus far, we turned to the DiscoverX platform (KINOMEscan®, Eurofins DiscoverX), a widely used assay for comparing selectivity across the kinome. The DiscoverX platform reports the thermodynamic Kd in order to facilitate direct comparison of inhibitor affinity across the kinome, independent of ATP concentration.
# [2] = target: CYP 2C19 (Homo sapiens, UniProt P33261); experiment: CYP inhibition, 2C19
# CYP 2C19, sequence (P33261 whole entry): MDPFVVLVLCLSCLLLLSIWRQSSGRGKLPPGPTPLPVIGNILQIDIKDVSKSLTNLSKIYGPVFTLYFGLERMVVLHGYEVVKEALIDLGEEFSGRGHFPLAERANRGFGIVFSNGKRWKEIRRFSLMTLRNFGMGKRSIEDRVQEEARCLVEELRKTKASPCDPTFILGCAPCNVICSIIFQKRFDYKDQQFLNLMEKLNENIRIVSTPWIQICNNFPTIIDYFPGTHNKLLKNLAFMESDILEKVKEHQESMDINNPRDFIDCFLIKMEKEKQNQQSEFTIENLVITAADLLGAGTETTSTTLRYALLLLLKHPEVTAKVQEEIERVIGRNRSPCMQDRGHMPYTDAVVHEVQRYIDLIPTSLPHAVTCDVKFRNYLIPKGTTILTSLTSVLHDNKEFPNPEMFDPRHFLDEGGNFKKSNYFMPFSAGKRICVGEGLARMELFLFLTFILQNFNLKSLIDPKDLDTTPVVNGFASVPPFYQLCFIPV
# [3] = target: T1, ERK1 (Homo sapiens, UniProt P27361); experiment: scanEDGE DiscoverX kinome-wide scan, ERK1; assay type: binding; settings: 10 μM
# T1 construct: purchased Eurofins DiscoverX scanEDGE
# T1 sequence (P27361 whole entry): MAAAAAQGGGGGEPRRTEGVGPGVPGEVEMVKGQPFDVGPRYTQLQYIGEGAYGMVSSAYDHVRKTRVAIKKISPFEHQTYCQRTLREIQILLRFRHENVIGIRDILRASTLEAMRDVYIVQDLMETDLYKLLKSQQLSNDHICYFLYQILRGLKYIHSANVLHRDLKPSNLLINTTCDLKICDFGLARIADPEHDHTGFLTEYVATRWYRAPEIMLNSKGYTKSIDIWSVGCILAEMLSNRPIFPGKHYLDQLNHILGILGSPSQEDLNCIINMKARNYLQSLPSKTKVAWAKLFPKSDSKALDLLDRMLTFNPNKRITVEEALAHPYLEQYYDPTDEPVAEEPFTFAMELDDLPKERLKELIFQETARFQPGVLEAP
# Description: as §1
# [4] = system: CYP isoforms 3A4/5; experiment: CYP inhibition, 3A4/5
# [5] = target: T2, MEK7 (Homo sapiens, UniProt O14733); experiment: ADP-Glo kinase activity assay, MEK7; assay type: biochemical
# T2 construct: purchased Carna Biosciences
# T2 sequence (O14733 1-419): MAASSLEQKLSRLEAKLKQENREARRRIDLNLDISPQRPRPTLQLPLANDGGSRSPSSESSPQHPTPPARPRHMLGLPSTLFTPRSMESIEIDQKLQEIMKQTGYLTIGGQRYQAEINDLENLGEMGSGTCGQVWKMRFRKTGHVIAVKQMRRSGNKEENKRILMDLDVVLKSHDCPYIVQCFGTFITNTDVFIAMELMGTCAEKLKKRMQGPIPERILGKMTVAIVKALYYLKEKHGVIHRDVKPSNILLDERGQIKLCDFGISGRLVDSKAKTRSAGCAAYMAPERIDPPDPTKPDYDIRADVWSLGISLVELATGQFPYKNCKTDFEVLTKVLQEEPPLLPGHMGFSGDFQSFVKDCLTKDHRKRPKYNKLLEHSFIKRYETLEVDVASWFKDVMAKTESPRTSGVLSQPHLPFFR
# Protocol: The compounds were then evaluated both in vitro and in a cellular system. When studying kinase inhibitors, there are a multitude of ways to evaluate selectivity across kinases.
# Procedure for a 5 μL Kinase reaction using the ADP-Glo Kinase Assay Kit from Promega. Staurosporine was used as the positive control, and DMSO as the negative control. Activity of recombinant active full-length human MEK4 (Carna Biosciences) was measured using the ADP-Glo assay with recombinant full-length human p38α (MAPK14). Kinase reactions with MEK7 (Carna Biosciences) were done at the same concentration and amounts with recombinant full-length human p38α (MAPK14).
# For each well, 4 ng of MEK4 and 600 ng of p38α in Kinase buffer (CST) were used, and 1 μL of this mixture was dispensed per well.
# Inhibitor was prepared in a DMSO solution. A dose response dilution was done in a 384-well Echo transfer plate. […] This mixture was allowed to incubate for 30 minutes at room temperature.
# Using a Mantis, 1 μL, of an 8 μM ATP solution was added to each well, and the plate was allowed to incubate for another 1 hour at room temperature. […] All experiments were done in triplicate on the plate, and at least in one separate technical duplicate.
# [6] = system: phospho-p38 MAPK in HEK293T cells; experiment: p38 MAPK phosphorylation, western blotting, HEK293T; assay type: cell-based, human; settings: anisomycin pretreatment, compound 100 μM, 5 hours
# Protocol: (§2) HSP90 was used as loading control. The blots are representative of at least three biological replicates.
# (§3) We next evaluated the effects of our inhibitors on the phosphorylation activity and expression of MEK1/2, MEK3/6, and MEK7. […] We also evaluated the effects on p42/44 MAPK (ERK1/2), which functions downstream of MEK1/2.
# (§4) Whole cell extracts of cultured cells were prepared in radioimmunoprecipitation (RIPA) lysis buffer supplemented with phosphatase and protease inhibitors (Calbiochem). Protein concentration was determined by the bicinchoninic acid assay (BCA) (ThermoFisher) and separated by the SDS-PAGE technique. […] Secondary anti-mouse IgG (A4416) and anti-rabbit IgG (A6667) antibodies were purchased from Sigma-Aldrich and used a 1:4000 dilution. Images of blots were acquired on HyBlot ES Autoradiography Film (Thomas Scientific, Swedesboro, NJ, USA) following incubation with SuperSignal West Pico PLUS (ThermoFisher).
# [7] = system: 97 kinases; experiment: scanEDGE DiscoverX kinome-wide scan; assay type: binding; settings: 10 μM
# Description: as §1
# [8] = system: phospho-p42/44 MAPK in HEK293T cells; experiment: p42/44 MAPK (ERK1/2) phosphorylation, western blotting, HEK293T; assay type: cell-based, human; settings: anisomycin pretreatment, compound 100 μM, 5 hours
# Protocol: as §2, §3, §4
# [9] = target: CYP 2D6 (Homo sapiens, UniProt P10635); experiment: CYP inhibition, 2D6
# CYP 2D6, sequence (P10635 whole entry): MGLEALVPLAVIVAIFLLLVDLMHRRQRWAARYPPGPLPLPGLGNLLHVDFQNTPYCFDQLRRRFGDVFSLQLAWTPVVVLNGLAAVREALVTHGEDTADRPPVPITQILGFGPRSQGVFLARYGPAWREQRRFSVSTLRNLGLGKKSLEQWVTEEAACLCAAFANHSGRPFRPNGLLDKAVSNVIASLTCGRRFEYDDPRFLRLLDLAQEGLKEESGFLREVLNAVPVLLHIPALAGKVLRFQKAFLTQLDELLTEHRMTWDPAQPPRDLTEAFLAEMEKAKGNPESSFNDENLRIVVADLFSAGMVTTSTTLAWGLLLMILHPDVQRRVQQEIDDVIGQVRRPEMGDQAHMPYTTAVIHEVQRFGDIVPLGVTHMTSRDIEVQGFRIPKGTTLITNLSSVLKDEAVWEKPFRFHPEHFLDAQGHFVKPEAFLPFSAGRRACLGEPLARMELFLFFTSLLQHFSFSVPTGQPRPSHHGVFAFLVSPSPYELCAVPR
# [10] = system: JNK phosphorylation in HEK293T cells; experiment: anisomycin-induced JNK phosphorylation, western blotting, HEK293T; assay type: cell-based, human; settings: anisomycin 45 minutes then compound 5 hours, increasing doses
# Protocol: The blots are representative of at least three biological replicates.
# (§5) We also examined the effects of these inhibitors on JNK phosphorylation and proliferation of two pancreatic cancer cell lines (CD18 and MiaPaCa2).
# (§6) Human pancreatic cancer cell lines (CD18/HPAF-II and MiaPaCa2) and HEK293T cells were obtained from American Type Culture Collection. All cell lines were cultured according to the manufacturer's protocol. All media contained 10% Fetal Bovine Serum (FBS) and antibiotics (100 U/mL Penicillin and 100 μg/mL Streptomycin).
# as §4
# [11] = system: phospho-p42/44 MAPK in CD18 cells; experiment: p42/44 MAPK phosphorylation, western blotting, CD18; assay type: cell-based, human; settings: CD18, MEK4 inhibitor 10 μM, 5 hours
# Protocol: The effects of different treatments on phospho-p42/44 MAPK and total p42/44 MAPK expression levels were determined by western blotting. HSP90 was used as loading control. The blots are representative of at least three biological replicates.
# as §4
# [12] = target: CYP 1A2 (Homo sapiens, UniProt P05177)
# CYP 1A2, sequence (P05177 whole entry): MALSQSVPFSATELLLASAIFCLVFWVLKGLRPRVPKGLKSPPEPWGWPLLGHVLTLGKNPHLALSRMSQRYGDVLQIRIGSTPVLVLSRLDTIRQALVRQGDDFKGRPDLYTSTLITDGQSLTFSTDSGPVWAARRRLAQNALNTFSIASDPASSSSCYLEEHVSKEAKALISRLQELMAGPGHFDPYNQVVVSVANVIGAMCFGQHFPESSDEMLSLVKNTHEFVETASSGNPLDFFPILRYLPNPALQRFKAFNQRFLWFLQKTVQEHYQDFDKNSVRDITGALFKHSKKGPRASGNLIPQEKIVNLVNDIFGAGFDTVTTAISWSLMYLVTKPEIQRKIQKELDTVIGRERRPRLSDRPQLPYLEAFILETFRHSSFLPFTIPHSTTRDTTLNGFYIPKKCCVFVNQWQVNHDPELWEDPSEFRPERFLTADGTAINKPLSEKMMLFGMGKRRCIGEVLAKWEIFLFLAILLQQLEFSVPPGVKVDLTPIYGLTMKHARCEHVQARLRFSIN
# [13] = Log D study (BioDuro-Sundia); settings: pH of 7.4
# [14] = system: JNK phosphorylation in MiaPaCa2 cells; experiment: anisomycin-induced JNK phosphorylation, western blotting, MiaPaCa2; assay type: cell-based, human; settings: MiaPaCa2, anisomycin 45 minutes then compound 5 hours
# Protocol: as §2, §5, §6, §4
# [15] = system: MEK7 expression in HEK293T cells; experiment: MEK7 expression, western blotting, HEK293T; assay type: cell-based, human; settings: anisomycin pretreatment, compound 100 μM, 5 hours
# Protocol: as §2, §3, §4
# [16] = target: T3, RAF (Homo sapiens, UniProt P04049); experiment: scanEDGE DiscoverX kinome-wide scan, RAF; assay type: binding; settings: 10 μM
# T3 construct: purchased Eurofins DiscoverX scanEDGE
# T3 sequence (P04049 whole entry): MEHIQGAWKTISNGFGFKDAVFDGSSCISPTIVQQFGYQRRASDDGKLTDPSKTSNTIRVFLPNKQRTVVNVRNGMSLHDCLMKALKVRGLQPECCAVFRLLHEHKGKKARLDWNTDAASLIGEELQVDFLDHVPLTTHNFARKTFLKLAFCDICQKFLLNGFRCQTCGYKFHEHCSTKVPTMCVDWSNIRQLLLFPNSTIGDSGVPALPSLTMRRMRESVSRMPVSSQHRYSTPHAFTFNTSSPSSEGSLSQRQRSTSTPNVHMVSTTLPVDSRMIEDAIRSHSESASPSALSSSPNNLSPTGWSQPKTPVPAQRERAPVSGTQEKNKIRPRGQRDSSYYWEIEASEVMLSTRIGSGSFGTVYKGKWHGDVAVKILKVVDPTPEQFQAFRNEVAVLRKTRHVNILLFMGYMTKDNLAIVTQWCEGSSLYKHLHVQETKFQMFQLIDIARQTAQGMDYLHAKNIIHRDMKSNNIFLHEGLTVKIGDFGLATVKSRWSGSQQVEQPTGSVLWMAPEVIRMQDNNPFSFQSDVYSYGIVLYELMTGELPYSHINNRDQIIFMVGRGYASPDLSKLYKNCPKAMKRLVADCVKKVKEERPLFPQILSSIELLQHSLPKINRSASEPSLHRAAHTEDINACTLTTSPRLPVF
# Description: as §1
# [17] = system: Caco-2; experiment: Caco-2 permeability assay; assay type: in vitro ADME
smiles,measurement,setting,value
"NC(=O)c1ccc(NS(=O)(=O)c2cccc(-c3n[nH]c4cc(F)ccc34)c2)cc1 [Compound 15o, 4-((3-(6-fluoro-1H-indazol-3-yl)phenyl)sulfonamido)benzamide]",inhibition of JNK1/2/3,[1],did inhibit
same,inhibition of CYP 2C19,[2],inhibited
same,inhibition of ERK1,[3],did not inhibit
same,inhibition of CYP isoforms 3A4/5,[4],did not inhibit
same,IC50,"[5]; headline value per compound, read-out: MEK7 IC50",96 nM
same,IC50,"[5]; individual experiment, values in brackets, n=3, read-out: MEK7 IC50 of each experiment (IC50±SEM)",41 nM and 150 nM
same,effect on anisomycin-induced p38 MAPK phosphorylation,[6],not affected
same,"number of kinases hit at 80% or higher inhibition, out of 97 kinases",[7],28
same,effect on p42/44 MAPK phosphorylation after anisomycin,[8],reversed the effects of anisomycin
same,inhibition of CYP 2D6,[9],low inhibition
same,effect on anisomycin-induced JNK phosphorylation,[10],attenuated anisomycin-induced INK phosphorylation in a dose-dependent manner
same,effect on p42/44 MAPK phosphorylation,[11],increased p42/44 MAPK phosphorylation
same,inhibition of CYP 1A2,[12],inhibited
same,log D,[13],3.22
same,effect on anisomycin-induced JNK phosphorylation,[14],attenuated anisomycin-induced JNK phosphorylation
same,effect on the expression of MEK7,[15],no effect
same,inhibition of RAF,[16],did not inhibit
same,Caco-2 permeability,[17],medium to high permeability
same,Pgp substrate,[17]; Caco-2 permeability assay,likely to be a Pgp substrate
